For the assay, the target named is T1, PD-1/PD-L1 interaction (PD-1-Ig / PD-L1-His) (Homo sapiens, UniProt Q9NZQ7).
T1 construct: hPDL1(18-239)-TVMV-His; TVMV protease site linker (C); made in house; host or cells: HEK293T
The assay can be described thus: PD-1/PD-L1 Homogenous Time-Resolved Fluorescence (HTRF) binding assay. The note with it: PD-L1-His 10 nM, PD-1-Ig 20 nM, read-out: Range or IC50. From the text:
The ability of the compounds of formula (I) to bind to PD-L1 was investigated using a PD-1/PD-L1 Homogenous Time-Resolved Fluorescence (HTRF) binding assay.
Homogenous Time-Resolved Fluorescence (HTRF) Binding Assay.
The interaction of PD-1 and PD-L1 can be assessed using soluble, purified preparations of the extracellular domains of the two proteins. The PD-1 and PD-L1 protein extracellular domains were expressed as fusion proteins with detection tags, for PD-1, the tag was the Fc portion of Immunoglobulin (PD-1-Ig) and for PD-L1 it was the 6 histidine motif (PD-L1-His). All binding studies were performed in an HTRF assay buffer consisting of dPBS supplemented with 0.1% […] bovine serum albumin and 0.05% (v/v) Tween-20. For the h/PD-L1-His binding assay, inhibitors were pre-incubated with PD-L1-His (10 nM final) for 15 m in 4 μl of assay buffer, followed by addition of PD-1-Ig (20 nM final) in 1 μl of assay buffer and further incubation for 15 m. HTRF detection was achieved using europium crypate-labeled anti-Ig (1 nM final) and allophycocyanin (APC) labeled anti-His (20 nM final). Antibodies were diluted in HTRF detection buffer and 5 μl was dispensed on top of the binding reaction. […] Additional binding assays were established between the human proteins PD-1-Ig/PD-L2-His (20 & 5 nM, respectively) and CD80-His/PD-L1-Ig (100 & 10 nM, respectively). […]
(In general: TR-FRET usually uses a lanthanide donor and a delayed reading to cut background.)

Each structure is given as a SMILES string. Where two headings read alike, the source gives them in different places.

T1 sequence (Q9NZQ7 with tags, fused parts or gaps): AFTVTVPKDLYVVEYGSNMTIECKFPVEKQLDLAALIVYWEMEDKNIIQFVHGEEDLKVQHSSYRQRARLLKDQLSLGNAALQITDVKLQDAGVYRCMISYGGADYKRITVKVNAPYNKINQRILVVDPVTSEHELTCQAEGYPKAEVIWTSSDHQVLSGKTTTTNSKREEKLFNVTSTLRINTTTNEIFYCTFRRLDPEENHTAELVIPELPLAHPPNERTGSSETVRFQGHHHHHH

For orientation: IC50 means the midpoint of a concentration-inhibition curve. As to `Cc1c(OCCCNCCN(C)C)cccc1-c1cccc(OCCCN2CC[C@@H](O)C2)c1C` [Example 2007, (R)-1-(3-((3′-(3-((2-(dimethylamino)ethyl)amino)propoxy)-2,2′-dimethyl-[1,1′-biphenyl]-3-yl)oxy)propyl)pyrrolidin-3-ol], where the note is “IC50 range class”, the IC50 was in the range of 90.1 to 1000 nM.
`Cc1c(OCCCNCCn2cccn2)cccc1-c1cccc(OCCCN2CC[C@@H](O)C2)c1C` [Example 2008, (R)-1-(3-((3′-(3-((2-(1H-pyrazol-1-yl)ethyl)amino)propoxy)-2,2′-dimethyl-[1,1′-biphenyl]-3-yl)oxy)propyl)pyrrolidin-3-ol]: the IC50 (IC50 range class) fell in the range of 90.1 to 1000 nM.
On the same count and under the same terms, the result for `Cc1ccn(CCNCCCOc2cccc(-c3cccc(OCCCN4CC[C@@H](O)C4)c3C)c2C)n1` [Example 2009, (R)-1-(3-((2,2′-dimethyl-3′-(3-((2-(3-methyl-1H-pyrazol-1-yl)ethyl)amino)propoxy)-[1,1′-biphenyl]-3-yl)oxy)propyl)pyrrolidin-3-ol] reads 20.1 to 90 nM; that for `Cc1c(OCCCNCCS(C)(=O)=O)cccc1-c1cccc(OCCCN2CC[C@@H](O)C2)c1C` [Example 2010, (R)-1-(3-((2,2′-dimethyl-3′-(3-((2-(methylsulfonyl)ethyl)amino)propoxy)-[1,1′-biphenyl]-3-yl)oxy)propyl)pyrrolidin-3-ol], 20.1 to 90 nM.
On the same count and under the same terms, the result for `Cc1c(OCCCNC[C@H](O)CO)cccc1-c1cccc(OCCCN2CC[C@@H](O)C2)c1C` [Example 2011, (S)-3-((3-((3′-(3-((R)-3-hydroxypyrrolidin-1-yl)propoxy)-2,2′-dimethyl-[1,1′-biphenyl]-3-yl)oxy)propyl)amino)propane-1,2-diol] reads 20.1 to 90 nM; that for `Cc1c(OCCCN[C@@H](CO)C(=O)O)cccc1-c1cccc(OCCCN2CC[C@@H](O)C2)c1C` [Example 2012, (3-((3′-(3-((R)-3-hydroxypyrrolidin-1-yl)propoxy)-2,2′-dimethyl-[1,1′-biphenyl]-3-yl)oxy)propyl)-L-serine], 90.1 to 1000 nM.
On the same count and under the same terms, with `Cc1c(OCCCN[C@@](C)(CO)C(=O)O)cccc1-c1cccc(OCCCN2CC[C@@H](O)C2)c1C` [Example 2013, (S)-3-hydroxy-2-((3-((3′-(3-((R)-3-hydroxypyrrolidin-1-yl)propoxy)-2,2′-dimethyl-[1,1′-biphenyl]-3-yl)oxy)propyl)amino)-2-methylpropanoic acid] the figure was 90.1 to 1000 nM; with `Cc1c(OCCCNCCO)cccc1-c1cccc(OCCCN2CC[C@@H](O)C2)c1C` [Example 2014, (R)-1-(3-((3′-(3-((2-hydroxyethyl)amino)propoxy)-2,2′-dimethyl-[1,1′-biphenyl]-3-yl)oxy)propyl)pyrrolidin-3-ol], 20.1 to 90 nM.
As to `Cc1c(OCCCNCC(O)C(=O)O)cccc1-c1cccc(OCCCN2CC[C@@H](O)C2)c1C` (stereo partly drawn) [Example 2016, 2-hydroxy-3-((3-((3′-(3-((R)-3-hydroxypyrrolidin-1-yl)propoxy)-2,2′-dimethyl-[1,1′-biphenyl]-3-yl)oxy)propyl)amino)propanoic acid], under “IC50 range class”, the IC50 lay in the range of 20.1 to 90 nM.
As for `Cc1c(OCCCN[C@H]2CC[C@H](O)CC2)cccc1-c1cccc(OCCCN2CC[C@@H](O)C2)c1C` [Example 2017, (R)-1-(3-((3′-(3-(((1r,4r)-4-hydroxycyclohexyl)amino)propoxy)-2,2′-dimethyl-[1,1′-biphenyl]-3-yl)oxy)propyl)pyrrolidin-3-ol], the IC50 (IC50 range class) fell in the range of 20.1 to 90 nM.
In the case of `CC(=O)N[C@@H]1CCN(CCCOc2cccc(-c3cccc(OCCCN4CC[C@@H](O)C4)c3C)c2C)C1` [Example 2018, N—((R)-1-(3-((3′-(3-((R)-3-hydroxypyrrolidin-1-yl)propoxy)-2,2′-dimethyl-[1,1′-biphenyl]-3-yl)oxy)propyl)pyrrolidin-3-yl)acetamide], where the note is “numeric IC50”, the IC50 was 69 nM.
In the case of `Cc1c(OCCCN2CCCC(C(N)=O)C2)cccc1-c1cccc(OCCCN2CC[C@@H](O)C2)c1C` (stereo partly drawn) [Example 2019, 1-(3-((3′-(3-((R)-3-hydroxypyrrolidin-1-yl)propoxy)-2,2′-dimethyl-[1,1′-biphenyl]-3-yl)oxy)propyl)piperidine-3-carboxamide], for the setting “IC50 range class”, the IC50 fell in the range of 0.04 to 20 nM.
As to `Cc1c(OCCCNCCCn2ccnc2)cccc1-c1cccc(OCCCN2CC[C@@H](O)C2)c1C` [Example 2020, (R)-1-(3-((3′-(3-((3-(1H-imidazol-1-yl)propyl)amino)propoxy)-2,2′-dimethyl-[1,1′-biphenyl]-3-yl)oxy)propyl)pyrrolidin-3-ol], the IC50 (IC50 range class) was 0.04 to 20 nM.
For the compound `Cc1c(OCCCNCCCN2CCOCC2)cccc1-c1cccc(OCCCN2CC[C@@H](O)C2)c1C` [Example 2021, (R)-1-(3-((2,2′-dimethyl-3′-(3-((3-morpholinopropyl)amino)propoxy)-[1,1′-biphenyl]-3-yl)oxy)propyl)pyrrolidin-3-ol], the IC50 (IC50 range class) lay in the range of 20.1 to 90 nM.
For the compound `Cc1c(OCCCNCCc2cccnc2)cccc1-c1cccc(OCCCN2CC[C@@H](O)C2)c1C` [Example 2022, (R)-1-(3-((2,2′-dimethyl-3′-(3-((2-(pyridin-3-yl)ethyl)amino)propoxy)-[1,1′-biphenyl]-3-yl)oxy)propyl)pyrrolidin-3-ol], where the note is “IC50 range class”, the half-maximal inhibitory concentration (IC50) fell in the range of 0.04 to 20 nM.
`Cc1c(OCCCNCc2ccccn2)cccc1-c1cccc(OCCCN2CC[C@@H](O)C2)c1C` [Example 2024, (R)-1-(3-((2,2′-dimethyl-3′-(3-((pyridin-2-ylmethyl)amino)propoxy)-[1,1′-biphenyl]-3-yl)oxy)propyl)pyrrolidin-3-ol]: the IC50 (IC50 range class) was in the range of 20.1 to 90 nM.
For `Cc1c(OCCCNCCO)cccc1-c1cccc(OCCCNCCO)c1C` [Example 2027, 2,2′-((((2,2′-dimethyl-[1,1′-biphenyl]-3,3′-diyl)bis(oxy))bis(propane-3,1-diyl))bis(azanediyl))bis(ethan-1-ol)], the IC50 (IC50 range class) was in the range of 20.1 to 90 nM.
Still for that read-out and setting: the result for `Cc1c(OCCCNCCc2ccncc2)cccc1-c1cccc(OCCCNCCc2ccncc2)c1C` [Example 2028, 3,3′-((2,2′-dimethyl-[1,1′-biphenyl]-3,3′-diyl)bis(oxy))bis(N-(2-(pyridin-4-yl)ethyl)propan-1-amine)] reads 0.04 to 20 nM; that for `Cc1c(OCCCN(C)CCCO)cccc1-c1cccc(OCCCN(C)CCCO)c1C` [Example 2030, 3,3′-((((2,2′-dimethyl-[1,1′-biphenyl]-3,3′-diyl)bis(oxy))bis(propane-3,1-diyl))bis(methylazanediyl))bis(propan-1-ol)], 0.04 to 20 nM; that for `Cc1c(OCCCN(C)C[C@H](O)CO)cccc1-c1cccc(OCCCN(C)C[C@H](O)CO)c1C` [Example 2031, (2S,2′S)-3,3′-((((2,2′-dimethyl-[1,1′-biphenyl]-3,3′-diyl)bis(oxy))bis(propane-3,1-diyl))bis(methylazanediyl))bis(propane-1,2-diol)], 0.04 to 20 nM.
The same measure, in the same setting: with `Cc1c(OCCCN(C)CCN(C)C)cccc1-c1cccc(OCCCN2CC[C@@H](O)C2)c1C` [Example 2032, (R)-1-(3-((3′-(3-((2-(dimethylamino)ethyl)(methyl)amino)propoxy)-2,2′-dimethyl-[1,1′-biphenyl]-3-yl)oxy)propyl)pyrrolidin-3-ol] the figure was 20.1 to 90 nM; with `Cc1c(OCCCN2CC[C@@H](O)C2)cccc1-c1cccc(OCCCN2CC[C@H](CO)[C@H](O)C2)c1C` [Example 2033, (3S,4R)-4-(hydroxymethyl)-1-(3-((3′-(3-((R)-3-hydroxypyrrolidin-1-yl)propoxy)-2,2′-dimethyl-[1,1′-biphenyl]-3-yl)oxy)propyl)piperidin-3-ol], 0.04 to 20 nM; with `Cc1c(OCCCN(C)CCO)cccc1-c1cccc(OCCCN2CC[C@@H](O)C2)c1C` [Example 2034, (R)-1-(3-((3′-(3-((2-hydroxyethyl)(methyl)amino)propoxy)-2,2′-dimethyl-[1,1′-biphenyl]-3-yl)oxy)propyl)pyrrolidin-3-ol], 20.1 to 90 nM.
In the case of `Cc1c(OCCCNCCc2ccncc2)cccc1-c1cccc(OCCCN2CC[C@@H](O)C2)c1C` [Example 2035, (R)-1-(3-((2,2′-dimethyl-3′-(3-((2-(pyridin-4-yl)ethyl)amino)propoxy)-[1,1′-biphenyl]-3-yl)oxy)propyl)pyrrolidin-3-ol], for the setting “IC50 range class”, the IC50 was in the range of 0.04 to 20 nM.
Same read-out and setting: the result for `Cc1c(OCCCN2CCN(C)C(=O)C2)cccc1-c1cccc(OCCCN2CC[C@@H](O)C2)c1C` [Example 2036, (R)-4-(3-((3′-(3-(3-hydroxypyrrolidin-1-yl)propoxy)-2,2′-dimethyl-[1,1′-biphenyl]-3-yl)oxy)propyl)-1-methylpiperazin-2-one] reads 90.1 to 1000 nM.
Regarding `Cc1c(OCCCN[C@@H](Cc2ccncc2)C(=O)O)cccc1-c1cccc(OCCCN2CC[C@@H](O)C2)c1C` [Example 2037, (S)-2-((3-((3′-(3-((R)-3-hydroxypyrrolidin-1-yl)propoxy)-2,2′-dimethyl-[1,1′-biphenyl]-3-yl)oxy)propyl)amino)-3-(pyridin-4-yl)propanoic acid], for the setting “IC50 range class”, the IC50 is 90.1 to 1000 nM.
In the case of `Cc1c(OCCCNCCC(N)=O)cccc1-c1cccc(OCCCN2CC[C@@H](O)C2)c1C` [Example 2038, (R)-3-((3-((3′-(3-(3-hydroxypyrrolidin-1-yl)propoxy)-2,2′-dimethyl-[1,1′-biphenyl]-3-yl)oxy)propyl)amino)propanamide], the IC50 (IC50 range class) is 90.1 to 1000 nM.

These data come from patent US10144706B2 (BRISTOL-MYERS SQUIBB COMPANY, priority 2016, dated 2018).
